Values after ≈ are worked out from the molar mass of the structure shown. Read-outs that look alike come from different tables or passages of the source.

For one series, the system named is P. vulgaris A21559. The series can be described thus: M.I.C., tube dilution. The series is classed as cell-based. The following applies: Nutrient Broth.
A further series deals with S. faecalis A20688. In words: M.I.C., tube dilution. It counts as cell-based. As to conditions: Nutrient Broth.
A further series has as its system P. aeruginosa A-9843A. The series can be described thus: M.I.C., tube dilution. The series is classed as cell-based. The following applies: overnight incubation at 37° C., Nutrient Broth; listed as Ex. 15"C".
The next series relates to P. morganii A15153. The series can be described thus: M.I.C., tube dilution. The series is classed as cell-based. The following applies: overnight incubation at 37° C.
The subject of a further series is E. coli A20341-1. The series can be described thus: M.I.C., tube dilution. It counts as cell-based. The following applies: Nutrient Broth.
For the next series, the system named is S. aureus A-9537. The series can be described thus: M.I.C., tube dilution. It counts as cell-based.
For a further series, the system named is E. coli A15119. In words: M.I.C., tube dilution. It counts as cell-based. As to conditions: overnight incubation at 37° C., Nutrient Broth.
The subject of another series is S. pneumoniae A-9585. In words: M.I.C., tube dilution. As to conditions: overnight incubation at 37° C., Nutrient Broth. The series is classed as cell-based.
A further series concerns K. pneumoniae A-9664. In words: M.I.C., tube dilution. It counts as cell-based. As to conditions: Nutrient Broth.
For the next series, the system named is S. pyogenes A-9604. The series can be described thus: M.I.C., tube dilution. As to conditions: overnight incubation at 37° C., Nutrient Broth; listed as Ex. 15"C". It counts as cell-based.
The test system of a further series is P. mirabilis A-9900. The series can be described thus: M.I.C., tube dilution. It counts as cell-based. As to conditions: Nutrient Broth.
A further series relates to P. rettgeri A22424. In words: M.I.C., tube dilution. It counts as cell-based. As to conditions: overnight incubation at 37° C., Nutrient Broth.
For another series, the system named is P. aeruginosa A21213. In words: M.I.C., tube dilution. The series is classed as cell-based. As to conditions: Nutrient Broth.
Series [1] relates to S. aureus A-9606 (Pen-res.). The series can be described thus: M.I.C., tube dilution. The series is classed as cell-based. The following applies: overnight incubation at 37° C.
A further series deals with K. pneumoniae A20468. The series can be described thus: M.I.C., tube dilution. As to conditions: Nutrient Broth. It counts as cell-based.
For the next series, the system named is E. cloacae A-9656. The series can be described thus: M.I.C., tube dilution. The series is classed as cell-based. As to conditions: Nutrient Broth.
Series [2] in a line: Blood levels in mice after intramuscular administration.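 On all read-outs here: compounds dissolved in 0.1 M phosphate buffer at pH 7, data from one experiment using four mice for each compound.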 As to conditions: for AUC / Cmax / half-life: 20 mg/kg.
From the text: Compounds were solubilized in 0.1 M phosphate buffer pH 7.
a single test; 4 mice used per compound.
Compounds were solubilized in 0.1 M phosphate buffer, pH 7.
on a single test; 4 mice per compound.
The next series concerns E. cloacae A-9659. The series can be described thus: M.I.C., tube dilution. The following applies: overnight incubation at 37° C., Nutrient Broth. The series is classed as cell-based.
The subject of a further series is S. marcescens A20019. The series can be described thus: M.I.C., tube dilution. The series is classed as cell-based. As to conditions: overnight incubation at 37° C., Nutrient Broth.
Series [3] can be described thus: Half-life (stability) in buffer solution. It counts as physicochemical. The following applies: 10^-4 M, (phosphate) buffer pH 7.4, 37° C.; read-out: half-life in solution (converted). The protocol: T1/2 =9.8 h (measured at a concentration of 10^-4 M in phosphate buffer pH 7.4 at 36.8° C.).
UV (phosphate buffer, pH 7.4) λmax 294 nm (ε=8,202); T1/2 (phosphate buffer, pH 7.4, M=0.967, T=37° C.) 9.1 h.
(c of 10^-4 M in pH 7.4 phosphate buffer.
.tau.1/2 =20.8 h measured at 37° C. in buffer (pG 7.4) for a concentration of 10^-4 M.
.tau.1/2 =12.5 h measured at 37° C. in buffer pH 7.4 for a concentration of 10^-4 M.
h (measured for a concentration of 10^-4 M at 36.8° C. in buffer pH 7.4).
.tau.1/2 =26.0 h (measured for a concentration of 10^-4 M at 36.8° C. in buffer pH 7.4).
.tau.1/2 =16.6 h (measured at 36.8° C., pH 7.4 for a concentration of 10^-4 M) and (5R, 6S) 6-(1R-hydroxyethyl)7-oxo-3-[1,2,6-trimethylpyridinium-4-yl)methylthio]-1-azabicyclo[3.2.0 hept-2-ene-2-carboxylate, 0.010 g, 0.7%;
.tau.1/2 =11.6 h (measured for a concentration of 10^-4 M at 36.8° C. in buffer pH 7.4).
.tau.1/2 =13.4 h (measured for a concentration of 10^-4 M at 36.8° C. in buffer pH 7.4).
.tau.1/2 =14.4 h (measured for a concentration of 10^-4 M at 36.8° C. in buffer pH 7.4).
T 1/2: 10.2 h (biological buffer).
.tau.1/2 =10.2 h measured at 36.8° C. for a concentration of 10^-4 M in buffer pH 7.4.

[4] abbreviates: overnight incubation at 37° C., listed as Ex. 15"C".
Setting [5] is: Proteus vulgaris, A21559, overnight incubation at 37° C., read-out: MIC.
Setting [6] is: Enterococcus faecalis, A20688, overnight incubation at 37° C., read-out: MIC.
The mark [7] stands for this setting: Escherichia coli, A203411, overnight incubation at 37° C., read-out: MIC.
[8] abbreviates: Escherichia coli, A15119, read-out: MIC.
[9] abbreviates: Pseudomonas aeruginosa, A21213, overnight incubation at 37° C., read-out: MIC.
The mark [10] stands for this setting: Klebsiella pneumoniae, A20468, overnight incubation at 37° C., read-out: MIC.
Where [11] appears, read: Enterobacter cloacae, A9656, overnight incubation at 37° C., read-out: MIC.

Take `C[C@@H](O)C1C(=O)N2C(C(=O)[O-])=C(SCc3cn(C)n[n+]3C)CC12` (stereo partly drawn) [Example 15 "C", 3-[4-(N,N-dimethyl-1,2,3-triazolium)methylthio]-6α-[1-(R)-hydroxyethyl]-7-oxo-1-azabicyclo(3.2.0)hept-2-ene-2-carboxylate]: the MIC (in general, the smallest concentration in the dilution series that meets the test's criterion for growth inhibition) in the series with P. vulgaris A21559 (setting [4]) amounted to 0.06 µg/mL (≈ 0.177 µM); with S. faecalis A20688 (overnight incubation at 37° C.) it was 0.5 µg/mL (≈ 1.48 µM); in the series on P. aeruginosa A-9843A it was 8 µg/mL (≈ 23.6 µM); against P. morganii A15153 (printed M. morganii A15153, listed as Ex. 15"C"), 0.25 µg/mL (≈ 0.739 µM); against E. coli A20341-1 (overnight incubation at 37° C.) it was 0.03 µg/mL (≈ 0.0887 µM); against S. aureus A-9537 (+50% serum, listed as Ex. 15"C"), 0.06 µg/mL (≈ 0.177 µM). For the same compound, the MIC with S. aureus A-9537 (overnight incubation at 37° C., Nutrient Broth, listed as Ex. 15"C") was 0.016 µg/mL (≈ 0.0473 µM); against E. coli A15119 (listed as Ex. 15"C"), 0.06 µg/mL (≈ 0.177 µM); against S. pneumoniae A-9585 it was 0.5 ng/mL (≈ 0.00148 µM); with K. pneumoniae A-9664 (setting [4]), 0.06 µg/mL (≈ 0.177 µM); in the series on S. pyogenes A-9604 it was 0.3 ng/mL (≈ 0.000887 µM); in the series on P. mirabilis A-9900 (setting [4]), 0.06 µg/mL (≈ 0.177 µM). Further, the MIC against P. rettgeri A22424 (listed as Ex. 15"C") was found to be 0.25 µg/mL (≈ 0.739 µM); against P. aeruginosa A21213 (setting [4]), 0.5 µg/mL (≈ 1.48 µM); in series [1], 0.03 µg/mL (≈ 0.0887 µM); in the series with K. pneumoniae A20468 (setting [4]), 0.13 µg/mL (≈ 0.384 µM); in the series on E. cloacae A-9656 (setting [4]), 0.13 µg/mL (≈ 0.384 µM); in the series on E. cloacae A-9659 (listed as Ex. 15"C"), 0.13 µg/mL (≈ 0.384 µM). The compound also returned a minimum inhibitory concentration (MIC) against S. marcescens A20019 (listed as Ex. 15"C") of 0.13 µg/mL (≈ 0.384 µM). In series [2] (mice, 20 mg/kg i.m. (table 9)), the T1/2 is listed as 10 min. The AUC (in general, concentration integrated over time) in series [2] (mice, 20 mg/kg i.m. (table 9)) came out at 7300 ng·h/mL. For the same compound, the Cmax – broadly, the peak of the concentration-time curve – in series [2] (mice, 20 mg/kg i.m. (table 9)) came out at 15100 ng/mL.

For the compound `C[C@@H](O)[C@H]1C(=O)N2C(C(=O)[O-])=C(SCc3cn(C)n[n+]3CC(=O)O)C[C@H]12` [Example 17, Potassium 3-[5-(1-carboxylatomethyl-3-methyl-1,2,3-triazolium)-methanethio]-6α-[1-(R)-hydroxyethyl]-7-oxo-1-azabicyclo[3.2.0]hept-2-ene-2-carboxylate], the MIC in the series on P. vulgaris A21559 (setting [5]) was 0.13 µg/mL; in the series with S. faecalis A20688 (setting [6]) it was 4 µg/mL; in the series on P. morganii A15153 (Morganella morganii, A15153, printed M. morganii A15153, read-out: MIC) it was 0.5 µg/mL; in the series with E. coli A20341-1 (setting [7]), 0.6 µg/mL; in the series on S. aureus A-9537 (Staphylococcus aureus, A9537, +50% serum, read-out: MIC) it was 1 µg/mL; in the series with E. coli A15119 (setting [8]), 0.6 µg/mL. The MIC with P. rettgeri A22424 (Providencia rettgeri, A22424, read-out: MIC) is 2 µg/mL; in the series with P. aeruginosa A21213 (setting [9]), 16 µg/mL; in series [1] (Staphylococcus aureus) it was 0.5 µg/mL; in the series with K. pneumoniae A20468 (setting [10]) it was 0.5 µg/mL; with E. cloacae A-9656 (setting [11]), 2 µg/mL; in the series on E. cloacae A-9659 (Enterobacter cloacae, A9659, read-out: MIC), 2 µg/mL. This compound also returned an exposure (AUC) in series [2] (mouse, blood, im) of 3400 ng·h/mL. In [2] (mouse, blood, im), this compound yielded a Cmax of 11000 ng/mL. Also, in [2] (mouse, blood, im), the half-life (as a rule, how long it takes for the measured level to halve) was found to be 8 min.

As to `C[C@@H](O)[C@H]1C(=O)N2C(C(=O)[O-])=C(SCc3n[n+](C)nn3C)C[C@H]12` [Example 20, (1'R,5R,6S) 3-[(1,3-dimethyl-5-tetrazolium)-methylthio]-6-(1-hydroxyethyl)-7-oxo-1-azabicyclo[3.2.0]hept-2-ene-2-carboxylate], the minimum inhibitory concentration (MIC) was determined as 4 µg/mL (≈ 11.8 µM) in the series with P. vulgaris A21559 (setting [5]); 16 µg/mL (≈ 47.1 µM) in the series on S. faecalis A20688 (setting [6]); 2 µg/mL (≈ 5.89 µM) with E. coli A20341-1 (setting [7]); 0.5 µg/mL (≈ 1.47 µM) with S. aureus A-9537 (Staphylococcus aureus, A9537, overnight incubation at 37° C., Nutrient Broth, read-out: MIC); 1 µg/mL (≈ 2.95 µM) with E. coli A15119 (setting [8]); 4 µg/mL (≈ 11.8 µM) in the series with K. pneumoniae A-9664 (Klebsiella pneumoniae, A9664, overnight incubation at 37° C., read-out: MIC). Further, the MIC with P. mirabilis A-9900 (Proteus mirabilis, A9900, overnight incubation at 37° C., read-out: MIC) came out at 4 µg/mL (≈ 11.8 µM); with P. aeruginosa A21213 (setting [9]), 16 µg/mL (≈ 47.1 µM); in the series with K. pneumoniae A20468 (setting [10]), 4 µg/mL (≈ 11.8 µM); with E. cloacae A-9656 (setting [11]), 16 µg/mL (≈ 47.1 µM); in the series on S. marcescens A20019 (Serratia marcescens, A20019, read-out: MIC), 4 µg/mL (≈ 11.8 µM). For the same compound, the half-life at 100 µM in series [3] was 630 min. For the same compound, the AUC in series [2] (mouse, blood, im) was 15600 ng·h/mL. The compound further returned a Cmax in [2] (mouse, blood, im) of 28400 ng/mL. The same compound showed a half-life in series [2] (mouse, blood, im) of 14 min.

The values are drawn from US4732977A, “Carbapenem antibiotics” (priority 1986, dated 1988).
